Results from the Deep4Chem optical property database.

Assay: solvent given as SMILES

COc1ccc(C2=N/C(=C\c3ccccc3)C(=O)O2)cc1OC
absorption maximum (in C1COCCO1): 378 nm

CCOC(=O)CSc1nc(-c2ccc(OC)cc2)c(C)c(C#N)c1C#N
absorption maximum (in c1ccccc1): 374 nm

COc1ccc(O)cc1C=O
absorption maximum (in CO): 355 nm
absorption maximum (in ClC(Cl)Cl): 349 nm

CCOc1cccc2c1O[B-](F)(F)[n+]1c3c(c4c(c1-2)-c1ccccc1CC4)-c1ccccc1CC3
absorption maximum (in ClCCl): 343 nm

CC(C)(C)c1ccc2c(c1)c1cc(C(C)(C)C)ccc1n2-c1ccc(-c2nc(-c3ccc(P(=O)(c4ccccc4)c4ccccc4)cc3)nc(-c3ccc(P(=O)(c4ccccc4)c4ccccc4)cc3)n2)cc1
absorption maximum (in C1CCOC1): 364.73 nm
absorption maximum (in CC#N): 361.43 nm
absorption maximum (in CC(C)=O): 366.18 nm
absorption maximum (in CN(C)C=O): 365.92 nm
absorption maximum (in Cc1ccccc1): 375.96 nm
absorption maximum (in ClC(Cl)Cl): 435.78 nm
absorption maximum (in ClCCl): 375.3 nm

c1cc2cccc3c4cccc5cccc(c(c1)c23)c54
absorption maximum (in C1CCCCC1): 435 nm
absorption maximum (in ClC(Cl)Cl): 438.5 nm
absorption maximum (in ClCCl): 438 nm

CCOC(=O)/C(C#N)=C\c1cn(-c2ccccc2)nc1-c1ccccc1
absorption maximum (in C1CCOC1): 347 nm
absorption maximum (in C1COCCO1): 348 nm
absorption maximum (in CCO): 347 nm
absorption maximum (in CCOC(C)=O): 346 nm
absorption maximum (in CN(C)C=O): 347 nm
absorption maximum (in CO): 344 nm
absorption maximum (in CS(C)=O): 349 nm
absorption maximum (in Cc1ccccc1): 353 nm
absorption maximum (in ClC(Cl)Cl): 351 nm
absorption maximum (in ClCCl): 348 nm

CC1=CC(C)=[N+]2C1=C(c1ccc3cccnc3n1)c1c(C)cc(C)n1[B-]2(F)F
absorption maximum (in CC#N): 501 nm
absorption maximum (in CCCCCC): 506 nm
absorption maximum (in CO): 503 nm
absorption maximum (in ClC(Cl)Cl): 509 nm
absorption maximum (in ClCCl): 506 nm

CN(C)c1ccc(/C=C/C=C/c2ccncc2)cc1
absorption maximum (in C1COCCO1): 392 nm
absorption maximum (in CC#N): 392 nm
absorption maximum (in CCCCCCC): 383 nm
absorption maximum (in CO): 394 nm

CC(C)[Si](C#Cc1c2nc3ccccc3nc2c(C#C[Si](C(C)C)(C(C)C)C(C)C)c2nc3c4ccccc4c(=O)c4ccccc4c3nc12)(C(C)C)C(C)C
absorption maximum (in ClCCl): 603 nm

CCCC1=Cc2nc1ccc1[nH]c(cc1CCC)c1nc(c(OC)cc3[nH]c2cc3CCC)C(CCC)=C1
absorption maximum (in Cc1ccccc1): 682 nm

O=[N+]([O-])c1ccc(C#Cc2ccc3ccc(C#Cc4ccc([N+](=O)[O-])cc4)cc3c2)cc1
absorption maximum (in ClCCl): 347 nm

CC1(C)c2ccccc2N(c2cc[n+]3c(c2)-c2ccccc2O[B-]3(F)F)c2ccccc21
absorption maximum (in Cc1ccccc1): 358 nm

CCOC(=O)c1ccc(C2=C(c3ccccc3)c3oc4ccccc4[n+]3[B-](F)(F)O2)cc1
absorption maximum (in C1CCOC1): 350 nm

CCCCCCn1c2cc(/C=C(\C#N)c3cccs3)ccc2c2ccc(/C=C(\C#N)c3cccs3)cc21
absorption maximum (in ClC(Cl)Cl): 436.68 nm

COc1ccc(-c2nc(-c3ccccc3)c(N(c3ccccc3)c3ccccc3)s2)cc1
absorption maximum (in ClC(Cl)Cl): 357 nm

CC(=O)c1ccc(-c2cnc3nn4ccccc4c3c2)cc1
absorption maximum (in C1CCOC1): 386 nm

Clc1nnc(Oc2ccc(N(c3ccc(Br)cc3)c3ccc(Br)cc3)cc2)nn1
absorption maximum (in ClCCl): 524 nm

CCN(CC)c1ccc2cc(-c3nc4c5cccc6ccc7cccc(c7c65)c4n3-c3ccc(C(C)(C)C)cc3)c(=O)oc2c1
absorption maximum (in ClCCl): 410 nm

CC[n+]1nc2cc3c4c(c2c2cc(C)ccc21)CCCN4CCC3
absorption maximum (in O): 500 nm

O=c1ccc2cc3ccoc3cc2o1
absorption maximum (in CC(C)O): 298 nm
absorption maximum (in CCO): 299 nm
absorption maximum (in CCOCC): 294 nm
absorption maximum (in CO): 300 nm
absorption maximum (in O): 303 nm

O=C1CCCC2=C1C(c1cccc(Cl)c1)c1c(c3ccccc3oc1=O)N2 (stereo not drawn)
absorption maximum (in CS(C)=O): 373 nm

c1ccc(N(c2ccccc2)c2ccc(-c3ccc(-c4ccc(-c5cccs5)c5nsnc45)s3)cc2)cc1
absorption maximum (in ClC(Cl)Cl): 495 nm

N#Cc1c(-n2c3ccc(I)cc3c3cc(I)ccc32)c(-n2c3ccc(I)cc3c3cc(I)ccc32)c(C#N)c(-n2c3ccc(I)cc3c3cc(I)ccc32)c1-n1c2ccc(I)cc2c2cc(I)ccc21
absorption maximum (in Cc1ccccc1): 361 nm
